Where “and” joins values, the source holds several entries; their conditions need not be identical. Equal entries are not always repeated.
Experiments:
[1] = Fluorescence excitation/emission spectra in 2% SDS at acidic and neutral pH (Example 20, FIG. 1); assay type: physicochemical; conditions: 2% SDS in 7% acetic acid or phosphate-buffered saline
Description: FIG. 1: Fluorescence excitation/emission spectra of Compound 9. Spectra were generated in 7% acetic acid, 2% SDS. […] Identical spectra were obtained in phosphate-buffered saline, 2% sodium dodecyl sulfate (SDS).
Excitation/emission profiles of Compound 9 are obtained by incubating a […] solution of the dye in 2% SDS that has been prepared in either 7% acetic acid or 50 mM Na2HPO4, 150 mM NaCl, pH 7.0 for 30 minutes. Without the SDS, the dye gives very low fluorescence emission in aqueous solutions or buffers. Measurements are made in a quartz cuvette using a Hitachi F4500 fluorescence Spectrometer (Hitachi, Tokyo, Japan) or similar instrument. Spectra generated in 7% acetic acid, 2% SDS can be essentially superimposed on spectra obtained in phosphate-buffered saline, 2% SDS. Excitation maxima are observed at 300 and 490 nm with emission set at 640 nm. An emission maximum is observed at 640 nm with excitation set at 440 nm. This excitation profile is ideally suited for visualization of the stain using a 302-nm UV-B transilluminator, 473-nm second harmonic generation (SHG) laser or 488-nm argon-ion laser. The dye can also be visualized on a blue-light box (DARK READER™, Clare Research, Boulder, Colo.). The emission maximum of the Compound 9 is observed at 640 nm, and is thus spectrally well matched to emission band-pass filters optimized for the Texas Red dye.

[2] = target: bovine serum albumin (Bos taurus, UniProt P02769); assay: Fluorescence enhancement in presence of bovine serum albumin and SDS in solution (FIG. 5); assay type: physicochemical; conditions: 10 mM Tris, pH 8.0, 200 μg/mL bovine serum albumin
Description: FIG. 5: Fluorescence enhancement of Compound 9 in the presence of bovine serum albumin and sodium dodecyl sulfate in solution. Dye in 10 mM Tris, pH 8.0, 200 μg/mL bovine serum albumin, 0.05% SDS was compared with dye in 10 mM Tris, pH 8.0, 200 μg/mL bovine serum albumin, dye in 10 mM Tris, pH 8.0, 0.05% SDS or simply dye in 10 mM Tris, pH 8.0. A 7-fold enhancement in fluorescence emission of the dye in the presence of protein alone was observed relative to the dye in buffer alone. A 40-fold enhancement of fluorescence emission of the dye in the presence of anionic detergent and protein was observed relative to dye in buffer alone.

[3] = system: broad-range protein molecular weight markers; assay: Staining of broad-range molecular weight protein standards in SDS-polyacrylamide gels (Example 22, FIG. 2, 3)
Description: (§1) FIG. 2: Intensity profile comparison after staining broad-range protein molecular weight markers with SYPRO Orange dye in 7% acetic acid and phosohate-buffered saline. FIG. 2A.) Profile obtained with SYPRO Orange dye in 7% acetic acid. FIG. 2B.) Profile obtained with SYPRO Orange dye in 50 mM sodium phosphate, 150 mM sodium chloride, pH 7.0. Grey scale values of the fluorescence signals were inverted prior to obtaining the traces to facilitate evaluation of the peaks.
as §1, with “3:” for “2:”, “Compound 9” for “SYPRO Orange dye”, “phosphate-buffered” for “phosohate-buffered”, “3A.)” for “2A.)”, “3B.)” for “2B.)”
SDS-polyacrylamide gel electrophoresis is performed by standard methods utilizing 4% T, 2.6% C stacking gels, pH 6.8 and 15% T, 2.6% C separating gels, pH 8.8. % T is the total monomer concentration expressed in grams per 100 mL and % C is the percentage crosslinker. A staining solution of Compound 9 is prepared by diluting a stock solution that 5 is […] dye in DMSO in either 7.5% acetic acid or 50 mM Na2HPO4, 150 mM NaCl, pH 7.0 with vigorous mixing. Alternatively, a wide range of buffers are compatible with staining, including but not limited to formate, pH 4.0; citrate, pH 4.5; acetate, pH 5.0; MES, pH 6.0;
imidazole, pH 7.0; HEPES, pH 7.5; Tris acetate, pH 8.0; Tris-HCl, pH 8.5; Tris borate, 20 mM EDTA, pH 9.0; and bicarbonate, pH 10.0. Buffers should be prepared as 50-100 mM 10 solutions containing about 150 mM NaCl. Approximately 50-75 mL of staining solution is used for a typical mini-gel (5 cm×9 cm×1 mm). The gel is placed into the staining solution and the container is covered with aluminum foil to protect the dye from bright light. The gel is gently agitated for at least 30 minutes at room temperature using an orbital shaker (50:RPM). After staining, the gel is briefly dipped in water and visualized on a UV light box. […] As little as 1 ng of protein may be visualized when the fluorescent image is recorded by photography using a cellophane 490-nm long pass filter. […] In the latter buffer, protein bands are barely detectable above background fluorescence with these latter dyes.

[4] = system: whole cell lysates of rat fibroblasts; assay: Staining of two-dimensional gels of rat fibroblast lysates (Example 23); conditions: 2-D gel, photography with 490-nm long pass filter
Description: The non-fixative nature of the staining solution is illustrated by evaluating passive elution of proteins from a polyacrylamide matrix. Passive diffuision of proteins is evaluated by staining two-dimensional gels in 7% acetic acid or in phosphate-buffered saline using Compound 9. Whole cell lysates of rat fibroblasts are extracted according to standard procedures for mammalian cells. Approximately 50 μg total protein is applied per gel and large format two dimensional gel electrophoresis is performed by standard methods. Compound 9 staining solution is prepared by diluting the stock reagent to 2 μM in either 7.5% acetic acid or 50 mM Na2HPO4, 150 mM NaCl, pH 7.0 while vigorously mixing. Approximately 500-750 mL of Compound 9 staining solution is used for a typical large format 2-D gel (20 cm×20 cm×1 mm). The gel is placed into the staining solution and the container is covered with aluminum foil to protect the dye from bright light. The gel is gently agitated for at least 30 minutes at room temperature using an orbital shaker (50 RPM). After staining the gel is briefly dipped in water and visualized on a UV light box. […] As little as 1 ng of protein can be visualized when the fluorescent image is recorded by photography using a cellophane 490-nm long pass filter. […]

Chain of bovine serum albumin (P02769 25-607): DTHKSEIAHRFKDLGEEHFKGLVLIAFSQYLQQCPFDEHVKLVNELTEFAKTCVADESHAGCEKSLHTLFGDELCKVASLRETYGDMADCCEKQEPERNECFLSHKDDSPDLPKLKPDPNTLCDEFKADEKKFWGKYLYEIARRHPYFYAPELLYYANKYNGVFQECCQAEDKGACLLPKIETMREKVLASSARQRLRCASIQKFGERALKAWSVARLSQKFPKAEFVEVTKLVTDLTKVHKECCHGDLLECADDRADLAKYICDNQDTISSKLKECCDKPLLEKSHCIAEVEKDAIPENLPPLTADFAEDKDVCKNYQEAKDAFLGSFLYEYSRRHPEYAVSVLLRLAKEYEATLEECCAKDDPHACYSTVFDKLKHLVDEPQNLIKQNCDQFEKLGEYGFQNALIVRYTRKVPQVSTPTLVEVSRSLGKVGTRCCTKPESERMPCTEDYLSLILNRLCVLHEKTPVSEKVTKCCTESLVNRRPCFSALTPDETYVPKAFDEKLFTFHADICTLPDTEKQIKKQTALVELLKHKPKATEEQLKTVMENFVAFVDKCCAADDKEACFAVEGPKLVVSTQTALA

Excitation maxima ([1]; emission set at 640 nm): 300 nm and 490 nm | Emission maximum ([1]; excitation set at 440 nm): 640 nm | Enhancement in fluorescence emission, protein alone relative to dye in buffer alone [2]: 7 fold | Enhancement of fluorescence emission, anionic detergent and protein relative to dye in buffer alone ([2]; 0.05% SDS): 40 fold
Compound: CCn1c2ccccc2c2cc(/C=C/c3cc[n+](CCCCS(=O)(=O)[O-])c4ccccc34)ccc21 [Compound 9]
Brightness of protein band staining ([3]; 7% acetic acid): as brightly as SYPRO Orange dye | Amount of protein that may be visualized (detection sensitivity) ([3]; SDS-polyacrylamide gel, photography with 490-nm long pass filter): 1 ng | Brightness of protein staining compared with SYPRO Orange dye ([3]; phosphate-buffered saline): much more brightly | Appearance of stained proteins on UV light box ([3]; regardless of the buffer): bright orange bands | Amount of protein that can be visualized (detection sensitivity) [4]: 1 ng

— US6579718B1, “Carbazolylvinyl dye protein stains” (Molecular Probes, Inc., priority 2000, dated 2003)
